# Where a chain is given by its changes, count along the chain named. Where a SMILES comes first, the peptide text is derived from it.
# What was measured:
# [1] = molecular target: T1, hTAS1R2 + hTAS1R3 C801L^7.39 (Homo sapiens, UniProt Q7RTX0+Q8TE23, C801L); assay: Calcium response (FLIPR), hTAS1R3 mutant coexpressed with hTAS1R2; assay type: cell-based; details: for receptor activation: mutant C801L^7.39; for EC50: variant C801L^7.39, n.f. = no response to any tested sweetener
# T1 construct: expressed in transfected cells; host or cells: HEK293T cells stably expressing G16Gust44
# T1 sequence (Q7RTX0 21-852 C801L): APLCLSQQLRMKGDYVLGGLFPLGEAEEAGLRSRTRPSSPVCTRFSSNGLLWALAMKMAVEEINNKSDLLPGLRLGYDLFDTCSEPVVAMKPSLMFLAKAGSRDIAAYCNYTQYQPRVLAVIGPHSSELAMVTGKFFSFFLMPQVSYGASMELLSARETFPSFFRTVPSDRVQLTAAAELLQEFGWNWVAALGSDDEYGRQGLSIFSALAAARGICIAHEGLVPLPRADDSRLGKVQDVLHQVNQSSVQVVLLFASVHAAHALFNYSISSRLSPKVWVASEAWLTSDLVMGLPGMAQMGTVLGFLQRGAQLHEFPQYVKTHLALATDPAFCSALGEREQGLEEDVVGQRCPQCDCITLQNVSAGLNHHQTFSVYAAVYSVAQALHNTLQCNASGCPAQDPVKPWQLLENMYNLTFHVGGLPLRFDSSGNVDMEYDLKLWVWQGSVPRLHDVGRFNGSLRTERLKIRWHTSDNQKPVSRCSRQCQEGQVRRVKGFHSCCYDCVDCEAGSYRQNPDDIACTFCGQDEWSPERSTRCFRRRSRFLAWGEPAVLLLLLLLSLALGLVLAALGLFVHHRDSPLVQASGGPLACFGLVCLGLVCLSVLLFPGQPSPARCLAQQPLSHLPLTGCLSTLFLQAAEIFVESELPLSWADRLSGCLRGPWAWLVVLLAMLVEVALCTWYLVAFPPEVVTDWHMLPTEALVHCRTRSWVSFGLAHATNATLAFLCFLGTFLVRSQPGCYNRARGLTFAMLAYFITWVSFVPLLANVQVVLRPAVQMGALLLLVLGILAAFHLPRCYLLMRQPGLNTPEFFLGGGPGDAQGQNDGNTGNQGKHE
# T1 sequence (Q8TE23 20-839): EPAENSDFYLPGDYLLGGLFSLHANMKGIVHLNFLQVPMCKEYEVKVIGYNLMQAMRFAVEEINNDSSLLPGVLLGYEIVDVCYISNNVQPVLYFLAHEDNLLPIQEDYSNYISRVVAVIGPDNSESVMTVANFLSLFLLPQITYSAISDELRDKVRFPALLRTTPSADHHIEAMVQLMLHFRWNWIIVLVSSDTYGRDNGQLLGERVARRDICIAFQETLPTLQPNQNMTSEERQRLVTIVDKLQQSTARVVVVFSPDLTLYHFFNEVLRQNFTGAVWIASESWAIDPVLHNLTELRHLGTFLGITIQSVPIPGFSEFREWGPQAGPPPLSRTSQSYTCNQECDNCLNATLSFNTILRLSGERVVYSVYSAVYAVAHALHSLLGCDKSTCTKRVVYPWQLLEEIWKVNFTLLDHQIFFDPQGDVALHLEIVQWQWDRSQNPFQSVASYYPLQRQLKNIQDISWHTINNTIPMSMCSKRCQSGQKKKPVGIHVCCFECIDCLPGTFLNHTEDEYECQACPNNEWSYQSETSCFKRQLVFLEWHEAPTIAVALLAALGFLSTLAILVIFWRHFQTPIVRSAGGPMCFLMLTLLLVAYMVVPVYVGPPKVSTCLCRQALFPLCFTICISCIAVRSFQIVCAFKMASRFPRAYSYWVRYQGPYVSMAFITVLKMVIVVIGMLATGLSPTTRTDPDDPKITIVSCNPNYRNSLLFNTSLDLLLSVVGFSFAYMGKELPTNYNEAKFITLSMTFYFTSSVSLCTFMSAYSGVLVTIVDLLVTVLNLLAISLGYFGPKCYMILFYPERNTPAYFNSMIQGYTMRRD
# Experimental: (§1) The cDNAs for TAS1Rs tagged at the C-terminus with the herpes simplex virus glycoprotein D (HSV) were transiently transfected into HEK293T cells stably expressing the chimeric G-protein subunit G16Gust44 [44] using Lipofectamine 2000 (Invitrogen, Carlsbad, CA) according to the manufacturer's protocol. 3–4 hours after transfection, DMEM was replaced by low-glucose DMEM supplemented with GlutaMAX and 10% dialyzed FBS (Invitrogen, Carlsbad, CA). 24 h post transfection, cells were loaded for 1 h with the calcium sensitive dye Fluo4-AM (2 μg/ml in DMEM, Molecular Probes, Carlsbad, CA). […] We monitored calcium mobilization following receptor stimulation with sweet tastants by an automated fluorometric imaging plate reader (FLIPR, Molecular Devices, Sunnyvale, CA). Compounds used as stimuli (Sigma-Aldrich, St. Louis, MO; Merck, Whitehouse Station, NJ) were dissolved in C1 solution. All data were collected from at least three independent experiments carried out in duplicate. The obtained calcium signals were corrected for the response of mock transfected cells and normalized to the fluorescence of cells prior to the application of the stimulus using ΔF/F = (F-F0)/F0.
# [2] = molecular target: T2, hTAS1R2 + hTAS1R3 V621L^2.58 (Homo sapiens, UniProt Q7RTX0+Q8TE23, V621L); assay: as above; assay type: cell-based; details: for receptor activation: mutant V621L^2.58; for EC50: variant V621L^2.58, n.f. = no response to any tested sweetener
# T2 construct: expressed in transfected cells; host or cells: HEK293T cells stably expressing G16Gust44
# T2 sequence (Q8TE23 20-839): T1 sequence (Q8TE23 20-839)
# T2 sequence (Q7RTX0 21-852 V621L): T1 sequence (Q7RTX0 21-852 C801L) with V601L, L781C
# Experimental: as §1
structure (smiles),measurement,setting,value
"COc1ccc(CCC(=O)c2c(O)cc(O[C@@H]3O[C@H](CO)[C@@H](O)[C@H](O)[C@H]3O[C@@H]3O[C@@H](C)[C@H](O)[C@@H](O)[C@H]3O)cc2O)cc1O [NHDC, neohesperidin dihydrochalcone]",receptor activation,[1],could not be activated
same,EC50,[1],n.f.
same,receptor activation,[2],could not be activated
same,EC50,[2],n.f.
CC1=CC(=O)NS(=O)(=O)O1 [acesulfame K],receptor activation,[1],could not be activated
same,receptor activation,[2],could not be activated
COC(=O)[C@H](Cc1ccccc1)NC(=O)[C@@H](N)CC(=O)O [aspartame] (HELM PEPTIDE1{D.F.[CO[*:1]]}$$$$V2.0),receptor activation,[1],could not be activated
same,EC50,[1],n.f.
same,receptor activation,[2],could not be activated
same,EC50,[2],n.f.
O=S(=O)(O)NC1CCCCC1 [cyclamate],receptor activation,[1],could not be activated
same,receptor activation,[2],could not be activated
